In US20210030703A1, “USE OF CALORIC RESTRICTION MIMETICS FOR POTENTIATING CHEMO-IMMUNOTHERAPY FOR THE TREATMENT OF CANCERS” (INSERM (INSTITUT NATIONAL DE LA SANTÉ ET DE LA RECHERCHE …, priority 2018, published 2021):

Tests used:
[1] = background, reference (9); cited from earlier work
[2] = system: MCA205 fibrosarcoma; assay: Subcutaneous MCA205 fibrosarcoma: tumor growth, cure and survival under chemo-immunotherapy; format: in vivo, C57B1/6 mice
[3] = system: TC1 lung carcinoma cells; assay: Rechallenge of cured mice with antigenically unrelated TC1 cells in the contralateral flank; format: in vivo, C57B1/6 mice; details: mice cured from MCA205 following MTX+ICIs+Spd treatment (FIG. 4G)
Protocol: (§1) In vivo experimentations. Tumor engraftment was performed through subcutaneous injection of 3×10^5 MCA205 fibrosarcoma tumor cells (in 100 μl PBS) in the right flank of the mice. […] Tumor size was carefully monitored up to 50 days post-MTX. Antitumor immunity induced by the treatment in cured mice was challenged by subcutaneously re-engrafting the same tumor (3×10^5 syngeneic MCA205 fibrosarcoma cells) in one flank while an antigenically unrelated cancer (3×10^5 syngeneic TC1 lung carcinoma cells) was implanted into the contralateral flank.

[4] = system: immune infiltrate of MCA205 tumors; assay: Immunophenotyping of the tumor immune infiltrate by flow cytometry; format: in vivo, C57B1/6 mice; details: data not shown
Protocol: 3 or 11 days post-chemotherapy (d3 or d11), mice were euthanized and the tumors were withdrawn and placed in gentleMACS C tubes (ref 130-096-334 from Miltenyi BiotecTM) previously filled with 1 ml of DMEM or RPMI medium, and immediately put on ice. […] Then, cells were stained with a live dead dye (ref L34959 from ThermoFisher ScientificTM) and an FCblock receptor targeting antibody. For the surface stainings, several anti-mouse fluorochrome-coupled antibodies were employed, that were for 1) myeloid cells “staining 1”: anti-CD45 APC-Fire750 (clone 30E-11, ref 130154 BiolegendTM), anti-Ly-6G PE (clone 1A8, ref 551461 BDTM), anti-Ly-6C FITC (clone AL-21, ref 553104, BDTM), anti-CD11b V450 (clone M1/70, ref 560455 BDTM), anti-CD11c PE-Cy7 (clone HL3, ref 558470 BDTM), anti-CD80 PerCP-Cy5.5 (16-10A1, ref 104722 BiolegendTM), and anti-MHC-II APC (clone M5/114.15.2, ref 107614 BiolegendTM) 2) T-cells “staining 2”: anti-CD3 APC (clone 17A2, ref 17-0032-82 eBioscienceTM), anti-CD8 PE (clone 53-6.7, ref 553032 BDTM), anti-CD4 PerCP-Cy5.5 (clone RM4-5, ref 45-0042-82 eBioscienceTM), anti-CD25 PE-Cy7 (clone PC61.5, ref 25-0251-82 InvitrogenTM), anti-ICOS BV421 (clone 7E.17G9, ref 564070 BDTM) and anti-PD-1 APC-Fire750 (clone 29F.1Al2, ref 135240 BiolegendTM) 3) PD-L1 expressing-cells “staining 4”: anti-CD45 AlexaFluor647 (clone 30E-11, ref 103-124 BiolegendTM), anti-PD-L1 BV421 (clone MIHS, ref 564716 BDTM) and anti-PD-L2 PE-Dazzle594 (clone TY25, ref 107215 BiolegendTM) 4) NKT cells “staining 5”: anti-CD3 FITC (clone 17A2, ref 11-00-32-82 eBioscienceTM) and anti-NK1.1 PerCP-Cy5.5 (clone PK136, ref 551114 BDTM). After the fixation and permeabilization of the cells (thanks to the Cytofix/Cytoperm kit, ref 554714 BDTM for stainings 1, 3, 4 and 5; and with the Foxp3/Transcription Factor kit, ref 00-5523-00 eBioscienceTM for staining 2), intracellular stainings were performed using for “staining 2”: anti-FoxP3 FITC (clone FJK-16s, ref 11-5773-82 eBioscienceTM) and for “staining 3”: anti-IFNg APC (clone XMG1.2, ref 505-810 BiolegendTM), anti-TNFα APC-Cy7 (clone MP6-XT22, ref 506344 BiolegendTM) and anti-IL-2 PE-Dazzle 594 (clone JES6-5H4, ref 503-840 BiolegendTM). Finally, cells were resuspended in FACS buffer and analyzed on a flow cytometer BD LSR II.

[5] = system: MCA205 fibrosarcoma cells; assay: Rechallenge of cured mice with the same tumor (MCA205); format: in vivo, C57B1/6 mice; details: mice cured from MCA205 following MTX+ICIs+Spd treatment (FIG. 4G)
Protocol: as §1

[6] = system: whole MCA205 tumors; assay: RNA-seq analyses of whole tumors; format: in vivo, C57B1/6 mice; details: day 3 post-chemotherapy (MTX); data not shown
[7] = system: MCA205 fibrosarcoma; assay: Subcutaneous MCA205 fibrosarcoma: tumor growth, cure and survival under chemo-immunotherapy; format: in vivo, C57B1/6 mice; details: for Efficacy of MTX + ICIs (anti-PD-1 plus anti-CTLA-4) chemo-immunotherapy when the CRM is added: figure legends FIG. 2, 3, 4, 6
Protocol: Mouse strain and housing. Six- to 8-week-old wild-type female C57B1/6 mice were obtained from Envigo RMS SARL (Gannat, France). Animals were maintained in specific pathogen-free conditions in a temperature-controlled environment with 12 h light, 12 h dark cycles and received food and water ad libitum (unless precised otherwise). Animal experiments were in compliance with the EU Directive 63/2010 and approved by the Ethical Committee of the Cordeliers Research Center (Paris, France). All mouse experiments were randomized and blinded, and sample sizes were calculated to detect a statistically significant effect.
In vivo experimentations. Tumor engraftment was performed through subcutaneous injection of 3×10^5 MCA205 fibrosarcoma tumor cells (in 100 μl PBS) in the right flank of the mice. Tumor volume was monitored using a digital caliper and calculated according to the formula: volume=length×width×height/8×4/3 pi. When tumor reached 20 mm^3 on average, mice underwent fasting (48 hours without food but ad libitum access to water) or were given caloric restriction mimetics (CRMs) such as aspirin (Asp; 10 mg/kg i.p. in 200 μl phosphate buffered saline [PBS] five times per week), hydroxycitrate (HC; 5 mg/ml in drinking water daily) or spermidine (Spd; 50 mg/kg i.p. in 200 μl Earle's balanced salt solution three times per week), or were treated with mitoxantrone (MTX; 5.17 mg/kg i.p. in 200 μl PBS), or with the immune checkpoint inhibitors (ICIs) anti-PD-1 (10 mg/kg i.p. in 200 μl PBS) and/or anti-CTLA-4 (5 mg/kg i.p. in 200 μl PBS). Tumor size was carefully monitored up to 50 days post-MTX. Antitumor immunity induced by the treatment in cured mice was challenged by subcutaneously re-engrafting the same tumor (3×10^5 syngeneic MCA205 fibrosarcoma cells) in one flank while an antigenically unrelated cancer (3×10^5 syngeneic TC1 lung carcinoma cells) was implanted into the contralateral flank.
Statistical analyses. For tumor size comparison, Student unpaired t test or one-way ANOVA (Holm-Sidak) were performed. All statistical analyses were performed using GraphPad Prism version 6 for Windows (GraphPad Software, La Jolla, Calif., USA). Differences were considered significant when p value<0.05.

## CC1=NN(c2ccc(C(=O)O)cc2)C(=O)/C1=C\c1ccc(-c2cc(C)c(C)cc2[N+](=O)[O-])o1 [C646]
[1]
  Efficacy of anticancer chemotherapy with immunogenic cell death (ICD) inducers: able to improve the efficacy

## O=C1[O][Pt]2([NH][C@@H]3CCCC[C@H]3[NH]2)[O]C1=O [OXA, [(1R,2R.)-cyclohexane-1,2-diamine](ethanedioato-O,O′)platinum(II)]
[2]; OXA+PD-1 blockade
  Cure rate: 40%

## O=C(O)C[C@]1(O)C[C@H](CCCCCCc2ccc(Cl)cc2Cl)OC1=O [SB2049901, (3R,5S)-re1-5-[6-(2,4-Dichlorophenyl)hexyl]tetrahydro-3-hydroxy-2-oxo-3-furanacetic acid]
[1]
  Efficacy of anticancer chemotherapy with immunogenic cell death (ICD) inducers: able to improve the efficacy

## NCCCCNCCCN [spermidine, H2N—(CH2)3-NH(CH2)4-NH2]
[3]
  Tumor formation by TC1 cancer cells injected into the opposite flank: yielded tumors
[4]; combined with MTX
  Increase in the density of total CD3+ and CD8+ T cell infiltrate: neither HC nor spermidine
[4]; day 3 post-chemotherapy (MTX)
  Myeloid infiltrate: no major increments
[4]; day 11 post-MTX
  Macrophage subpopulation with an M1 phenotype (Ly6G-F4/80+CD11c-CD11b+CD38+): expansion
[5]
  Outgrowth of reinjected MCA205 cancer cells: did not led to the outgrowth
[1]
  Efficacy of anticancer chemotherapy with immunogenic cell death (ICD) inducers: able to improve the efficacy
[6]
  Evidence of local immunostimulation: failed to yield convincing evidence
[2]; CRM added to OXA+PD-1 blockade
  Cure rate: 70%
  Cured mice: 7 out of 10
[2]; figure legend FIG. 7
  Efficacy of OXA and anti-PD-1 combination when the CRM is added: further enhanced
[7]; MTX pre-treatment associated with the CRM, then CTLA-4/PD-1-blocking antibodies (FIG. 6)
  Tumor-free mice: 8 out of 10
[7]
  Efficacy of MTX + ICIs (anti-PD-1 plus anti-CTLA-4) chemo-immunotherapy when the CRM is added: significantly improves tumor outcome
[7]; listed as Spd
  Efficacy of MTX + ICIs (anti-PD-1 plus anti-CTLA-4) chemo-immunotherapy when the CRM is added: further enhanced
[7]; pretreated with the CRM alone (without MTX), data not shown
  Response to CTLA-4/PD-1-blockade: did not respond
[7]; spermidine i.p. 3 times per week + MTX chemotherapy + dual CTLA-4/PD-1-targeting immunotherapy
  Cure of established tumor: 7 out of 9
